# Measured values from patent US20040072139A1, “Photodynamic treatment and uv-b-irradiation of a thrombocyte suspension” (priority 2000, published 2004).
# How the values were obtained:
# T-lymphocytes = experiment: Inactivation of T lymphocytes in PC, ConA-stimulated BRDU proliferation assay; assay type: cell-based; conditions: for Absorption OD450 nm (BRDU incorporation rate): ConA activation, three days cultivation
# SV-40 = assay type: cell-based, simian virus-40
# BVDV = assay type: cell-based, bovine viral diarrhoea virus
# platelets [1] = experiment: Hypotonic shock reaction (HSR) of treated platelet suspensions
# VSV = assay type: cell-based, vesicular stomatitis virus
# SHV-1 = assay type: cell-based, suid herpesvirus 1
# CSFV = assay type: cell-based, classical swine fever virus
# platelets [2] = experiment: Collagen-induced aggregation of treated platelet suspensions
# SFV = assay type: cell-based, Semliki Forest virus
# HIV-1 = assay type: cell-based, human immunodeficiency virus, Type 1
# [3] = Experiment 1, Day 1 after treatment, thionine/light + UV-B 2.4 J/cm^2
# [4] = Experiment 1, Day 1 after treatment, thionine/light alone
# [5] = Experiment 1, Day 3 after treatment, thionine/light + UV-B 2.4 J/cm^2
# [6] = Experiment 1, Day 3 after treatment, thionine/light alone
# [7] = Experiment 2, Day 1 after treatment, thionine/light + UV-B 2.4 J/cm^2
# [8] = Experiment 2, Day 1 after treatment, thionine/light alone
# [9] = Experiment 2, Day 3 after treatment, thionine/light + UV-B 2.4 J/cm^2
# [10] = Experiment 2, Day 3 after treatment, thionine/light alone
# [11] = Experiment 3, Day 1 after treatment, thionine/light + UV-B 2.4 J/cm^2
# [12] = Experiment 3, Day 1 after treatment, thionine/light alone
# [13] = Experiment 3, Day 3 after treatment, thionine/light + UV-B 2.4 J/cm^2
# [14] = Experiment 3, Day 3 after treatment, thionine/light alone
# [15] = combined treatment with thionine/light and UV-B compared with photodynamic treatment alone
structure (smiles),measurement,setting,value
"Cl.N=c1ccc2nc3ccc(N)cc3sc-2c1 [Thionine/light, Thionine]",UV-B irradiation time required for complete inactivation of the cells,"T-lymphocytes; PC additionally treated with thionine/light (2 μM, 30 min), at least 4 min with UV-B alone",approximately 3 min
same,Absorption OD450 nm (BRDU incorporation rate),"T-lymphocytes; Th/light (2 μM, 30 min) then UV-B 0.6 J/cm^2",1.020
same,Absorption OD450 nm (BRDU incorporation rate),"T-lymphocytes; Th/light (2 μM, 30 min) then UV-B 0.9 J/cm^2",0.387
same,Absorption OD450 nm (BRDU incorporation rate),"T-lymphocytes; Th/light (2 μM, 30 min) then UV-B 1.2 J/cm^2",0.240
same,Influence on the proliferation of the cells (in words),"T-lymphocytes; thionine/light alone (2 μM, 30 min)",no influence
same,Infectivity (in words),SV-40,still not completely eliminated
same,Reduction of virus titre,SV-40,3.9 log10TCID50
same,Inactivation of virus (in words),BVDV,completely inactivated
same,Reduction of virus titre,BVDV,≧4.9 log10TCID50
same,HSR,platelets [1]; [3],47.86%
same,HSR,platelets [1]; [4],65.49%
same,HSR,platelets [1]; [5],51.16%
same,HSR,platelets [1]; [6],49.16%
same,HSR,platelets [1]; [7],42.37%
same,HSR,platelets [1]; [8],56.24%
same,HSR,platelets [1]; [9],30.26%
same,HSR,platelets [1]; [10],52.61%
same,HSR,platelets [1]; [11],54.45%
same,HSR,platelets [1]; [12],69.30%
same,HSR,platelets [1]; [13],48.31%
same,HSR,platelets [1]; [14],55.49%
same,Influence on HSR (in words),platelets [1]; [15],neither the HSR (hypotonic shock reaction) nor the collagen-induced aggregation of platelet concentrates is substantially more strongly influenced
same,Infectivity (in words),VSV,still not completely eliminated
same,Reduction of virus titre,VSV,4.4 log10TCID50
same,Reduction of virus titre,SHV-1,≧3.6 log10TCID50
same,Inactivation of virus (in words),CSFV,completely inactivated
same,Reduction of virus titre,CSFV,≧5.5 log10TCID50
same,collagen-induced aggregation,platelets [2]; [3],69.75%
same,collagen-induced aggregation,platelets [2]; [4],73.25%
same,collagen-induced aggregation,platelets [2]; [5],16.75%
same,collagen-induced aggregation,platelets [2]; [6],13.75%
same,collagen-induced aggregation,platelets [2]; [7],76.67%
same,collagen-induced aggregation,platelets [2]; [8],84.67%
same,collagen-induced aggregation,platelets [2]; [9],53.50%
same,collagen-induced aggregation,platelets [2]; [10],27.67%
same,collagen-induced aggregation,platelets [2]; [11],58.33%
same,collagen-induced aggregation,platelets [2]; [12],69.67%
same,collagen-induced aggregation,platelets [2]; [13],30.33%
same,collagen-induced aggregation,platelets [2]; [14],15.67%
same,Influence on collagen-induced aggregation (in words),platelets [2]; [15],neither the HSR (hypotonic shock reaction) nor the collagen-induced aggregation of platelet concentrates is substantially more strongly influenced
same,Inactivation of virus (in words),SFV,completely inactivated
same,Reduction of virus titre,SFV,≧5.2 log10TCID50
same,Reduction of virus titre,HIV-1,≧5.7 log10TCID50
